Assay results reported in patent US10189795B2, “Aryl amine substituted quinoxaline used as anticancer drugs” (priority 2014, dated 2019).

Experiments:
SET-PP2Ac binding = molecular target: T1, SET-PP2Ac binding (Homo sapiens, UniProt Q01105); test: disruption of SET-PP2Ac binding (surface plasmon resonance, co-IP)
T1 construct: His; purchased Genway (SET-His); Abnova (PP2Ac-GST) GWB-ATG319; H00005515
Procedure: Binding affinities of full-length SET and truncated SET to PP2Ac and the effect of the erlotinib derivatives of the present invention on disrupting SET and PP2Ac were analyzed. PP2Ac-GST recombinant protein was bound in the CMS chip pre-coated with GST-capture antibodies. Sensorgrams were generated by injecting several concentrations of the erlotinib derivatives of the present invention mixed with fixed-concentration of SET recombinant protein, or the mixture of different concentration of truncated SET proteins in a fixed-dose EMQA. PP2Ac-GST recombinant protein used for this experiment was purchased from Abnova (H00005515) and SET-His recombinant protein was obtained from Genway (GWB-ATG319).
EMQA reactivates PP2A by disrupting the binding of SET-PP2Ac. To validate the role of SET, the present invention generated Hep3B cells with ectopic expression of myc-tagged SET by transient transfection. […] With a fixed amount of PP2Ac coated on the CM chip, the present invention tested the effects of a fixed-dose of EMQA on interfering different proportions of full-length and truncated forms of SET proteins in SPR system. […] To validate the findings of this ex vivo system, the present invention generated cells with ectopic overexpression of these two truncated forms of Flag-tagged SET proteins by transient transfections.

CIP2A, p-Akt = test: western blot of CIP2A and p-Akt in HCC cells; type: cell-based; settings: dose- and time-dependent
Procedure: Bar, mean; error bars, S.D. (n=3). […] Bar, mean; error bars, S.D. (n=3). […] Bar, mean; error bars, S.D. (n=3). […] Bar, mean; error bars, S.D. (n=3). […] Bar, mean; error bars, S.D. (n=3)
Cells were treated with […] for a time period. Cell lysates were analyzed by western blot analysis.
The present invention next investigated the molecular mechanism associated with TD-52, with particular focus on the cancerous inhibitor of protein phosphatase 2A (CIP2A)-protein phosphatase 2A (PP2A)-p-Akt signaling pathway. […] Furthermore, PP2A activity was enhanced after HCC cells treated with […]-52 for 24 hr (FIG. 2C), while the expression level of PP2A-related subunits, PP2A-A, PP2A-B5 and PP2A-C subunits, were not affected.

H520 = test: cell viability of H520 cells, 1 and 10 uM; type: cell-based; settings: Homo sapiens, NCI-H520
A549 = test: cell viability of A549 cells, 1 and 10 uM; type: cell-based; settings: Homo sapiens
SW900 = test: cell viability of SW900 cells, 1 and 10 uM; type: cell-based; settings: Homo sapiens
PLC5 = test: MTT cell viability, PLC5; type: cell-based; settings: 48 h
Procedure: The Sk-Hep1, PLC/PRF/5 (PLC) and Hep3B cell lines were obtained from American Type Culture Collection (ATCC; Manassas, Va., USA). The Huh-7 HCC cell line was obtained from the Health Science Research Resources Bank (HSRRB; Osaka, Japan; JCRB0403). Cells were maintained in DMEM supplemented with 10% FBS in a 37° C. humidified incubator in an atmosphere of 5% CO^2 in air. Other cell lines, including non-small cell lung cancer cells e.g. H358, H460 and A549 and human squamous cell carcinoma cells e.g. NCI-1703, H2170, H520, SW900 and NCI—H226 all obtained from American Type Culture Collection (Manassas, Va.) were also provided for the assays describes below.
(§1) The present invention compared the antitumor activities of an erlotinib derivative of the present invention, TD-52, and erlotinib on HCC cells. The present invention used MTT assay to evaluate cell viability after exposure to TD-52 or erlotinib for 48 h. […] To further evaluate the cell apoptosis induced by the treatments, all four cell lines were treated with TD-52 and erlotinib at the indicated concentration for 24 h and the percentages of sub-G1 cells were determined by flow cytometry (FIG. 1B).

NCI-H226 = test: cell viability of NCI-H226 cells, 1 and 10 uM; type: cell-based; settings: Homo sapiens
HA22T = test: MTT cell viability, HA22T; type: cell-based; settings: Homo sapiens, 48 h
Procedure: as §1

H358 = test: cell viability of H358 cells, 1 and 10 uM; type: cell-based; settings: Homo sapiens, NCI-H358

T1 sequence (Q01105 1-277 isoform Q01105-2): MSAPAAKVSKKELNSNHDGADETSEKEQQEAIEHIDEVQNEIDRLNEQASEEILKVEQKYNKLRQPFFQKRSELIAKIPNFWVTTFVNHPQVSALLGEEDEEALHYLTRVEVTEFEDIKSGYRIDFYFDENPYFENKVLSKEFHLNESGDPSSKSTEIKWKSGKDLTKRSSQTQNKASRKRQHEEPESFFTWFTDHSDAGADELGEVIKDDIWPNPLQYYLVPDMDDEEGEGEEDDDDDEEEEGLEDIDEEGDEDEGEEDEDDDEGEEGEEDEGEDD

C#Cc1cccc(Nc2nc3ccccc3nc2Nc2cccc(C#C)c2)c1 [TD52, N^2,N^3-bis(3-ethynylphenyl)quinoxaline-2,3-diamine]
minimal concentration to disrupt SET-PP2Ac binding (SET-PP2Ac binding): 100 to 200 nM | protein expression of CIP2A and p-Akt (CIP2A, p-Akt): downregulated | viability at 1 µM (H520; 1 uM): 95.8 ± 1.26% | viability at 10 µM (H520; 10 uM): 14 ± 0.14% | viability at 1 µM (A549; 1 uM): 71.5 ± 6% | viability at 10 µM (A549; 10 uM): 9.7 ± 0.9% | viability at 1 µM (SW900; 1 uM): 107 ± 13.1% | viability at 10 µM (SW900; 10 uM): 77.9 ± 11.3% | IC50 (PLC5): 800 nM | viability at 1 µM (NCI-H226; 1 uM): 79.5 ± 6.9% | viability at 10 µM (NCI-H226; 10 uM): 5.3 ± 0.1% | IC50 (HA22T): 900 nM | viability at 1 µM (H358; 1 uM): 99.8 ± 3.8% | viability at 10 µM (H358; 10 uM): 11.2 ± 0.7%
